According to US7563592B2, “Alizarin-based chromogenic substrates, their uses and composition containing same” (Biomerieux, S.A., priority 1999, dated 2009):

Legend:
[1] = tested on: Enterococcus faecalis 117; assay: Comparison of glucoside substrates in semi-solid Columbia medium (Example 7); assay type: cell-based
Citrobacter koseri 059 = assay: as above; assay type: cell-based
[2] = tested on: Klebsiella pneumoniae 023; assay: as above; assay type: cell-based
[3] = tested on: eight strains possessing β-galactosidase activity; assay: Fluorescent check of β-galactosidase activity in the eight discordant strains (Example 2); assay type: cell-based; details: all eight strains that selectively hydrolyzed Alizarin-2-β-D-galactoside
Description: The vast majority of strains (96.5%) reacted in exactly the same way—i.e. either positively or negatively—with both substrates. Eight strains selectively hydrolyzed Alizarin-2-β-D-galactoside. […] Therefore, these substrates are extremely sensitive and can be used at very low concentrations.

Serratia marcescens 042 = assay: β-galactosidase detection in semi-solid Columbia medium (Example 1); assay type: cell-based; details: 0.2 g/l, no iron citrate
Escherichia coli 115 = assay: as above; assay type: cell-based; details: 0.2 g/l, no iron citrate
[4] = tested on: Klebsiella pneumoniae 023; assay: as above; assay type: cell-based; details: 0.2 g/l, no iron citrate; 48 H
Enterococcus faecium 009 = assay: β-glucosidase detection in API strip wells (Example 6); details: 0.4 g/l
[5] = tested on: Listeria monocytogenes 022; assay: as above; details: 0.4 g/l
eight (8) species tested = assay: β-glucosidase detection in API strip wells, all species together (Example 6); assay type: cell-based; details: of the eight (8) species tested; 0.4 g/l
Listeria ivanovii 018 = assay: β-glucosidase detection in API strip wells (Example 6); details: 0.4 g/l
Listeria seeligeri 080 = assay: as above; details: 0.4 g/l; 24 H
[6] = tested on: Klebsiella pneumoniae 023; assay: as above; details: 0.4 g/l
Listeria innocua 036 = assay: as above; details: 0.4 g/l
[7] = 0.05 g/l + iron citrate 0.05 g/l, 18 H
[8] = 0.05 g/l + iron citrate 0.05 g/l, 24 H
[9] = 0.05 g/l + iron citrate 0.05 g/l, 48 H
[10] = 0.1 g/l + iron citrate 0.05 g/l, 18 H
[11] = 0.1 g/l + iron citrate 0.05 g/l, 24 H
[12] = 0.1 g/l + iron citrate 0.05 g/l, 48 H
[13] = 0.15 g/l, no iron citrate, 18 H
[14] = 0.15 g/l, no iron citrate, 24 H
[15] = 0.15 g/l, no iron citrate, 48 H

In the case of `O=C1c2ccccc2C(=O)c2c1ccc(O)c2O[C@@H]1O[C@H](CO)[C@@H](O)[C@H](O)[C@H]1O` [1-Alizarin1-β-D-glucoside, Alizarin-1-β-D-glucoside], the Color [1, 7] is reported as “Purple”, the Intensity [1, 7] is reported as 3.5 arbitrary units and the Color [1, 8] is reported as “Purple”. For the same compound, the Intensity [1, 8] was 4 arbitrary units, the Color [1, 9] was “Purple” and the Intensity [1, 9] was 4 arbitrary units. The Color [1, 10] was “Purple”, the Intensity [1, 10] was 3.5 arbitrary units and the Color [1, 11] was “Purple”. For the same compound, the Intensity [1, 11] was 4 arbitrary units, the Color [1, 12] was “Purple” and the Intensity [1, 12] was 4 arbitrary units. For the same compound, the Color (Citrobacter koseri 059; [7]) was “Mauve”, the Intensity (Citrobacter koseri 059; [7]) was 1.5 arbitrary units and the Color (Citrobacter koseri 059; [8]) was “Mauve”. For the same compound, the Intensity (Citrobacter koseri 059; [8]) was 2 arbitrary units, the Color (Citrobacter koseri 059; [9]) was “Mauve” and the Intensity (Citrobacter koseri 059; [9]) was 2.5 arbitrary units. The Color (Citrobacter koseri 059; [10]) was “Mauve”, the Intensity (Citrobacter koseri 059; [10]) was 2.5 arbitrary units and the Color (Citrobacter koseri 059; [11]) was “Mauve”. The Intensity (Citrobacter koseri 059; [11]) was 3 arbitrary units, the Color (Citrobacter koseri 059; [12]) was “Mauve” and the Intensity (Citrobacter koseri 059; [12]) was 4 arbitrary units. The Color [2, 7] was “Purple”, the Intensity [2, 7] was 2.5 arbitrary units and the Color [2, 8] was “Purple”. For the same compound, the Intensity [2, 8] was 3 arbitrary units, the Color [2, 9] was “Purple” and the Intensity [2, 9] was 3.5 arbitrary units. The Color [2, 10] was “Purple”, the Intensity [2, 10] was 3.5 arbitrary units and the Color [2, 11] was “Purple”. For the same compound, the Intensity [2, 11] was 4 arbitrary units, the Color [2, 12] was “Purple” and the Intensity [2, 12] was 4 arbitrary units.

With `Cc1cc(=O)oc2cc(O[C@@H]3O[C@H](CO)[C@H](O)[C@H](O)[C@H]3O)ccc12` [4-Methylumbelliferyl-β-D-galactoside] the “signal in the presence of the substrate” value [3] was “production of a fluorescent signal”.

In the case of `OC[C@H]1O[C@@H](Oc2c[nH]c3cc(Cl)ccc23)[C@H](O)[C@@H](O)[C@H]1O` [6-Chloro-3-indolyl-β-D-galactoside, reference compound], the Color (Serratia marcescens 042; 18 H) is reported as “pink”, the Intensity (Serratia marcescens 042; 18 H) is reported as 0.3 and the Color (Serratia marcescens 042; 24 H) is reported as “pink”. For the same compound, the Intensity (Serratia marcescens 042; 24 H) was 0.8, the Color (Serratia marcescens 042; 48 H) was “pink” and the Intensity (Serratia marcescens 042; 48 H) was 3.5. For the same compound, the Color (Escherichia coli 115; 18 H) was “pink”, the Intensity (Escherichia coli 115; 18 H) was 3.5 and the Color (Escherichia coli 115; 24 H) was “pink”. The Intensity (Escherichia coli 115; 24 H) was 3.5, the Color (Escherichia coli 115; 48 H) was “pink” and the Intensity (Escherichia coli 115; 48 H) was 3.5. The Color [4] was “pink” and the Intensity [4] was 0.3.

In the case of `OC[C@H]1O[C@@H](Oc2c[nH]c3cc(Cl)ccc23)[C@H](O)[C@@H](O)[C@@H]1O` [reference compound], the Color observed (Enterococcus faecium 009; 4 H) is reported as “Pink”, the Color observed (Enterococcus faecium 009; 24 H) is reported as “Pink” and the Color [1, 13] is reported as “Pink”. The Intensity [1, 13] was 1.5 arbitrary units, the Color [1, 14] was “Pink” and the Intensity [1, 14] was 2 arbitrary units. The Color [1, 15] was “Pink”, the Intensity [1, 15] was 2.5 arbitrary units and the Color (Citrobacter koseri 059; [13]) was “Pink”. The Intensity (Citrobacter koseri 059; [13]) was 0.5 arbitrary units, the Color (Citrobacter koseri 059; [14]) was “Pink” and the Intensity (Citrobacter koseri 059; [14]) was 1 arbitrary units. For the same compound, the Color (Citrobacter koseri 059; [15]) was “Pink”, the Intensity (Citrobacter koseri 059; [15]) was 2 arbitrary units and the Color observed ([5]; 4 H) was “Pink”. For the same compound, the Color observed ([5]; 24 H) was “Pink”, the “species in which activity was detected” value (eight (8) species tested) was 6 species and the Color [2, 13] was “Pink”. The Intensity [2, 13] was 2 arbitrary units, the Color [2, 14] was “Pink” and the Intensity [2, 14] was 2.5 arbitrary units. The Color [2, 15] was “Pink”, the Intensity [2, 15] was 3 arbitrary units and the Color observed (Listeria ivanovii 018; 4 H) was “Pink”. For the same compound, the Color observed (Listeria ivanovii 018; 24 H) was “Pink”, the Color observed (Listeria seeligeri 080) was “Pink” and the Color observed ([6]; 4 H) was “Pink”. The Color observed ([6]; 24 H) was “Pink”, the Color observed (Listeria innocua 036; 4 H) was “Pink” and the Color observed (Listeria innocua 036; 24 H) was “Pink”.
